Common to all, as to assay: Cell inhibitory activity experiment (CellTiter-Glo, 72 hours)
Common to all, as to assay type: cell-based
In general terms: In ATP-based viability assays light output follows the ATP content of the culture.

One test deals with A549. Conditions: Homo sapiens; A549, 72 hours. On the procedure:
(§1) • a) All cell lines were cultured in complete medium at 37 °C under 5% CO2. • b) Cells in logarithmic growth phase were collected and counted by a […]. The cell viability was detected by trypan blue exclusion method, and guaranteed to be over 90%. • c) The cell density was adjusted with a complete medium. Subsequently, 80 µL of cell suspension was seeded into each well of a 96-well cell culture plate according to 3000 cells per well. • d) The cells in the 96-well plate were cultured at 37°C under 5% CO2. • e) 10× drug solution was prepared. […] The working concentration of the test compound was 5 µM. For the test group, 10 µL of serially diluted test compound was transferred into the corresponding experimental well of 96-well cell culture plate, and added with 10 µL of diluent containing an equal amount of DMSO (1%), and three replicate wells were set up for each drug concentration. Control wells were added with corresponding volumes of diluent. • f) The cells in the 96-well plate added with the drug were continuously cultured at 37°C under 5% CO2 for 72 hours. • g) CTG reagent (CellTiter-Glo® Luminescent Cell Viability Assay, purchased from Promega, Cat. No. G7571) was thawed, and the cell culture plate was equilibrated to room temperature for 30 minutes. • h) 100 µL of CTG solution was added into each well. • i) The plate was shaken on an orbital shaker for 5 minutes to induce cell lysis. • j) The cell culture plate was placed at room temperature for 20 minutes to stabilize luminescent signals. • k) Luminescence intensities were read, and data were collected. • l) The data were analyzed by using GraphPad Prism 7.0 software, non-linear S-curve regression was applied to fit the data for generating dose-response curves, and IC50 values were calculated accordingly. Specific experimental results were shown in Table 4. [formula] Table 4 Cell inhibitory activities of payload compounds in the present invention

In a further test the test system is AsPC-1. Conditions: Homo sapiens, ASPC1; AsPC-1, 72 hours. As for the experimental part:
as §1

A further test deals with COLO205. The settings on record: Homo sapiens, COLO 205; COLO205, 72 hours. As for the experimental part:
as §1

For another test, the system named is COLO320DM. Conditions: Homo sapiens, COLO 320DM. As for the experimental part:
as §1

A further test concerns HCT15. Conditions: Homo sapiens, HCT-15; HCT15, 72 hours. As for the experimental part: as §1
A further test concerns HT29. Conditions: Homo sapiens, HT-29; HT29, 72 hours. On the procedure: as §1
A further test has as its system SK-OV-3. The settings on record: Homo sapiens; SK-OV-3, 72 hours. On the procedure: as §1

Bounds are passed on as bounds.

Usually IC50 stands for the concentration that gives 50% inhibition. High values mean a need for much substance, low ones inhibition by little substance. Regarding `CC[C@@]1(O)C(=O)OCc2c1cc1n(c2=O)Cc2c-1nc1cc(F)c(F)cc1c2CO` [C1-5, (4S)-4-ethyl-8,9-difluoro-4-hydroxy-11-(hydroxymethyl)-3,4,12,14-tetrahydro-1H-pyrano[3', 4':6,7]indolizino[1,2-b]quinolin-3,14-dione], the IC50 in the test on A549 was 21.1 nM; in the test with AsPC-1 it was 1120 nM; in the test with COLO205, 24.3 nM; in the test on COLO320DM, 196 nM; in the test with HCT15, 142 nM; with HT29, 144 nM. In the test on SK-OV-3, this molecule came in with a concentration for half-maximal inhibition (IC50) of 79.5 nM.
With `CC[C@@]1(O)C(=O)OCc2c1cc1n(c2=O)Cc2c-1nc1cc(F)c(C)c3c1c2[C@@H](NC(=O)CO)CC3` [DXd], the IC50 in the test with A549 is 104 nM; in the test on AsPC-1, 3100 nM; with COLO205, 95.5 nM; in the test on COLO320DM, 575 nM; in the test on HCT15, 889 nM; in the test with HT29, 344 nM. For the same molecule, the IC50 with SK-OV-3 is 288 nM.
Turning to `CCc1c2c(nc3ccc(O)cc13)-c1cc3c(c(=O)n1C2)COC(=O)[C@]3(O)CC` [SN-38], the IC50 was 66.5 nM with A549; over 10000 nM in the test on AsPC-1; 89.6 nM in the test on COLO205; 1420 nM in the test on COLO320DM; 313 nM in the test on HCT15; 287 nM with HT29. Further, half-maximal inhibition in the test on SK-OV-3 (IC50) was put at 168 nM.
